Reference: patent US8501911B2, “Methods of reducing inflammation and mucus hypersecretion” (Biomarck Pharmaceuticals, Ltd, priority 1999, dated 2013)
Where “and” joins values, the source holds several entries; their conditions need not be identical. Equal values may be shown once. Residues, ends and D or L forms follow the SMILES beside them. *: point of attachment. Myristoyl = CCCCCCCCCCCCCC(=O)*

Legend:
[1] = system: LPS-primed canine neutrophils; experiment: MPO secretion from LPS-primed canine neutrophils; type: cell-based
Method: Results-I-11 and Results-I-12 show MPO secretion from LPS-primed human neutrophils as a model for humans, and Results-I-13, Results-I-14, and Results-I-15 show MPO secretion from LPS-primed canine neutrophils as a model for canines. In all of these experiments, isolated neutrophils were stimulated with LPS at a concentration of 1×10^−6 M for 10 minutes at 37° C. prior to adding the stimuli. The LPS primes the cells so they can respond to a secretagogue.
In another comparative experiment, when absorbance was monitored at 450 nm while observing MPO secretion from LPS-primed canine neutrophils, Results-I-13 were obtained as follows.
In another comparative experiment, when absorbance was monitored at 450 nm while observing MPO secretion from LPS-primed canine neutrophils, Results-I-14 were obtained as follows.
In another comparative experiment, when absorbance was monitored at 450 nm while observing MPO secretion from LPS-primed canine neutrophils, Results-I-15 were obtained as follows.
Isolation of PMNs from canine blood—The steps involved in isolating PMN include collecting 10 ml ACD anticoagulated blood; then layering 5 ml on 3.5 ml PMN isolation media while ensuring that the PMN isolation media (IM) was at room temperature (RI). Next, the blood was centrifuged at room temperature for 30′, 550×g at 1700 RPMs. The low lower white band was transferred into a 15 ml conical centrifuge tube (CCFT). Next, 2V HESS with 10% fetal bovine serum […] was added and centrifuged at room temperature for 10′, 400×g at 1400 RPMs. The pellet was then resuspended in 5 ml 1-1ESS with PBS. The cell suspension was added to 50 ml CCFT containing 20 ml of ice cold 0.88% NH4 Cland inverted two to three times. […]
MPO Colorimetric Enzyme Assay—Samples were assayed for MPO activity in 96 well round bottom microtiter plates using a sandwich ELISA kit (R & D Systems, Minneapolis, Minn.). […] After mixing, the assay mixture was incubated at room temperature for 5 minutes, and MPO enzyme activity determined spectrophotometrically at […]. […]

NHBE cells = experiment: Cytotoxicity / metabolic activity of NHBE cells (LDH release, deoxyglucose uptake); type: cell-based, human; conditions: peptide 1-100 μM
Method: In Results-I-2B-1 and Results-I-2B-2, the MANS peptide blocked mucin hypersecretion induced by PMA+8-Br-cGMP or UTP in a concentration-dependent manner. NHBE cells were preincubated with the indicated peptide for 15 min and then exposed to PMA (100 nM)+8-Br-cGMP (1 μM) for 15 min or UTP (100 μM) for 2 h. Mucin secretion was measured by ELISA.
Cytotoxicity Assay—All reagents used in treating NHBE cells were examined for cytotoxicity by measuring the total release of lactate dehydrogenase from the cells. The assay was carried out using the Promega Cytotox 96 Kit according to the manufacturer's instructions. All experiments were performed with reagents at non-cytotoxic concentrations.

[2] = system: ozone-induced neutrophil migration into the airways; experiment: Mouse model of ozone-induced COPD (BAL analysis); type: in vivo; conditions: for % Neutrophils found in BAL fluid: intratracheal 1.0 mM peptide 30 min before ozone 2 hours (PBS + Ozone 21.4); for IFNγ in BAL fluid: peptide pretreatment then ozone (PBS + ozone approx. 18); for IL-6 in BAL fluid: peptide pretreatment then ozone (PBS + ozone approx. 197); for KC in BAL fluid: peptide pretreatment then ozone (PBS + ozone approx. 240); for % Inhibition of neutrophil migration into BAL fluid: relative to control group treated with PBS
Method: Ten-week-old Balb/C female mice were obtained from Charles River laboratories and housed under NIH guidelines in groups of 5 per cage. The animals received standard rodent diet and filtered water ad libitum. Three treatment groups of mice, 5 animals in each group, were each anesthetized by intraperitoneal injection of Ketamine (100 mg/kg) and Xylazine (20 mg/kg) and then pretreated by intratracheal administration with […] of either PBS alone, or a solution of 1.0 mM MANS peptide in PBS, or a solution of a 1.0 mM of a MANS-fragment-peptide designated as SEQ ID NO: 15 (MA-GAQFSKTAAK) in PBS. After 30 minutes, the animals were then placed in the appropriate custom-made chamber for ozone or forced air exposures. The animals were exposed to ozone for 2 hours (at ozone concentrations of 1-10 ppm by a slightly modified method described by Haddad et al, 1995. (Haddad E-B, Salmon M, Sun J, Liu S, Das A, Adcock I, Barnes P J, and Chung K F, FEBS Letters, 363:285-288, 1995). The ozone was generated using an ozone generator apparatus model OL80F/B from OzoneLab, Burton, British Columbia, Canada. Ozone concentration was continuously monitored using a Teledyne Photometric O3 Analyzer (model 400E, Teledyne Instruments, City of Industry, Calif.). Two additional groups of mice, each without any pretreatment, were either exposed to ozone under the same conditions or exposed to forced air under conditions similar to the ozone treatment group but absent ozone. After exposure, the animals were sacrificed by exsanguination and the lungs were serially lavaged 2 times with 1.0 mL aliquots of PBS. The collected bronchoalveolar lavage (BAL) fluid was centrifuged to remove the cells for subsequent counting and differential analysis. Recovered lavage fluid was used for protein and additional analysis of IL-6, IFNγ, and KC (murine IL-8 analog) by ELISA assay (assay kits obtained from R&D Systems, Minneapolis, Minn.).

| Compound | Lactate dehydrogenase release (NHBE cells) | [3H]deoxyglucose uptake (NHBE cells) | Diminished IL-6 levels (inhibition) vs. PBS control ([2]; after ozone exposure) | Effect on interferon-γ levels ([2]; after ozone exposure) | Reduced neutrophil cell infiltration in the BAL fluid vs. PBS control ([2]; after ozone exposure) | % Neutrophils found in BAL fluid [2] | IFNγ in BAL fluid [2] | IL-6 in BAL fluid [2] | KC in BAL fluid [2] | % Inhibition of neutrophil migration into BAL fluid [2] | further results |
| --- | --- | --- | --- | --- | --- | --- | --- | --- | --- | --- | --- |
| Nc1nc2c(nc(Br)n2[C@@H]2O[C@@H]3COP(=O)(O)O[C@H]3[C@H]2O)c(=O)[nH]1 [8-Br-cGMP] |  |  |  |  |  |  |  |  |  |  | Absorbance reading at 450 nm (MPO secretion) ([1]; 8-Br-cGMP 1 micromolar alone): approximately 0.078; Absorbance reading at 450 nm (MPO secretion) ([1]; 8-Br-cGMP 10 micromolar alone): approximately 0.0835 |
| CCCCCCCCCCCCCC(=O)O[C@@H]1[C@@H](C)[C@@]2(O)[C@@H](C=C(CO)C[C@]3(O)C(=O)C(C)=C[C@@H]23)[C@@H]2C(C)(C)[C@]12OC(C)=O [PMA, phorbol 12-myristate 13-acetate] |  |  |  |  |  |  |  |  |  |  | Absorbance reading at 450 nm (MPO secretion) ([1]; 100 nM PMA alone): 0.078 and 0.0825 |
| CCCCCCCCCCCCCC(=O)NCC(=O)N[C@@H](C)C(=O)N[C@@H](CCC(N)=O)C(=O)N[C@@H](Cc1ccccc1)C(=O)N[C@@H](CO)C(=O)N[C@@H](CCCCN)C(=O)N[C@H](C(=O)N[C@@H](C)C(=O)N[C@@H](C)C(=O)N[C@@H](CCCCN)C(=O)NCC(=O)N[C@@H](CCC(=O)O)C(=O)N[C@@H](C)C(=O)N[C@@H](C)C(=O)N[C@@H](C)C(=O)N[C@@H](CCC(=O)O)C(=O)N[C@@H](CCCNC(=N)N)C(=O)N1CCC[C@H]1C(=O)NCC(=O)N[C@@H](CCC(=O)O)C(=O)N[C@@H](C)C(=O)N[C@@H](C)C(=O)N[C@H](C(=O)N[C@@H](C)C(=O)O)C(C)C)[C@@H](C)O [MANS peptide] (Myristoyl-GAQFSKTAAKGEAAAERPGEAAVA-OH; C-terminus assumed) | neither the MANS nor the RNS peptide affected | neither the MANS nor the RNS peptide affected | approximately 85% | little effect | 93%±5% | 1.5% | approximately 13 pg/ml | approximately 23 pg/ml | approximately 60 pg/ml | 93.0% | Diminished IL-6 levels (inhibition) vs. PBS control ([2]; after ozone exposure, listed as MANS): 88%±8% |
| CCCCCCCCCCCCCC(=O)NCC(=O)N[C@H](C(=O)N[C@@H](C)C(=O)N1CCC[C@H]1C(=O)N[C@@H](C)C(=O)N[C@@H](C)C(=O)N[C@@H](CCC(=O)O)C(=O)NCC(=O)N[C@@H](C)C(=O)NCC(=O)N[C@@H](C)C(=O)N[C@@H](CCC(=O)O)C(=O)N[C@H](C(=O)N[C@@H](CCCCN)C(=O)N[C@@H](CCCNC(=N)N)C(=O)N[C@@H](C)C(=O)N[C@@H](CO)C(=O)N[C@@H](C)C(=O)N[C@@H](CCC(=O)O)C(=O)N[C@@H](C)C(=O)N[C@@H](CCCCN)C(=O)N[C@@H](CCC(N)=O)C(=O)N[C@@H](C)C(=O)N[C@@H](Cc1ccccc1)C(=O)O)C(C)C)[C@@H](C)O [RNS peptide, reference compound] (Myristoyl-GTAPAAEGAGAEVKRASAEAKQAF-OH; C-terminus assumed) | neither the MANS nor the RNS peptide affected | neither the MANS nor the RNS peptide affected |  |  |  |  |  |  |  |  |  |
| CCCCCCCCCCCCCC(=O)NCC(=O)N[C@@H](C)C(=O)N[C@@H](CCC(N)=O)C(=O)N[C@@H](Cc1ccccc1)C(=O)N[C@@H](CO)C(=O)N[C@@H](CCCCN)C(=O)N[C@H](C(=O)N[C@@H](C)C(=O)N[C@@H](C)C(=O)N[C@@H](CCCCN)C(=O)O)[C@@H](C)O [SEQ ID NO: 15, N-myristoyl-GAQFSKTAAK] (Myristoyl-GAQFSKTAAK-OH; C-terminus assumed) |  |  | 75%±8% and ~75% | little effect | 47.7%±5% | 11.2% | approximately 9 pg/ml | approximately 49 pg/ml | approximately 147 pg/ml | 47.7% | Diminished KC concentrations (inhibition) vs. PBS control ([2]; after ozone exposure): 38%±5% and ~40% |
